From patent US10239893B2, “Controlling the isomerization rate of Azo-BF2 switches using aggregation” (THE TRUSTEES OF DARTMOUTH COLLEGE, priority 2013, dated 2019)
Several values for one entry are separate records, joined by “and”; a condition that tells them apart may be missing. Equal entries are not always repeated.

Tests used:
[1] = Stability to reduction by glutathione, 10 mM GSH in acetonitrile:PBS buffer (1:1); type: physicochemical; settings: for degradation half-life with GSH: acetonitrile:PBS (1:1) with 10 mM GSH, 25° C.
Method: (§1) The stability of the switches in an aqueous environment was tested by conducting multiple switching cycles (10 cycles shown in FIG. 22a) of 4 in an acetonitrile:PBS buffer (1:1) mixed solvent system. These experiments were conducted by irradiating the sample using 710 nm light, followed by thermal relaxation under dark. […] The stability of switch 4 to reduction by glutathione (GSH) was also tested. The switch was incubated in 10 mM reduced glutathione in acetonitrile:PBS buffer (1:1) solution.

[2] = Isomer ratios under dark and at photostationary states by 1H NMR; type: physicochemical; settings: for PSS isomer ratio, cis, irradiation at 710 nm (PSS710): lowest estimation because of fast thermal relaxation
Method: ^1H NMR spectroscopy was employed to evaluate the photo-switching efficiency of 10 in CD2Cl2 (0.53 mM).
[…] The LEDs were affixed in a custom irradiation chamber fitted with a cooling fan to maintain ambient temperature. The light intensities at 430 and 600 nm were determined using chemical actinometry^S1 and a Thorlabs optical power meter, respectively. Photoisomerization quantum yields were measured by monitoring the proton integral change in trans/cis isomers after 430 and 600 nm irradiation for 2 and 20 s, respectively. Each quantum yield measurement was repeated three times under the same conditions. The photostationary states (PSS) were determined upon continuous irradiation until no further isomerization was observed using ^1H NMR spectroscopy. PBS buffer is an aqueous solution prepared by dissolving Na2HPO4 (1.420 g), KH2PO4 (0.245 g) NaCl (8.007 g) and KCl (0.201 g) in 1 L deionized water.

[3] = Thermal cis→trans relaxation followed by 1H NMR in CD2Cl2; type: physicochemical; settings: CD2Cl2 at 294 K, starting from PSS710
From the text: Unaltered CD2Cl2 solution of compound 4 in a quartz NMR tube was irradiated at 710 nm until its photostationary state was reached.

[4] = Stability (hydrolysis) in acetonitrile:PBS buffer (1:1), followed by UV-Vis; type: physicochemical; settings: acetonitrile:PBS (1:1), 25° C.
Method: as §1
All reagents and starting materials were purchased from commercial vendors and used without further purification. Column chromatography was performed on silica gel (Silicycle, 230-400 mesh). The melting points were measured on an Electrothermal 9100 instrument in open capillary tubes without thermometer correction. Deuterated solvents were purchased from Cambridge Isotope Laboratories and used as received. ^1H NMR and ^13C NMR spectra were recorded on a 500 MHz spectrometer, with working frequencies of 499.87 MHz for ^1H nuclei and 125.7 MHz for ^13C nuclei, respectively. ^19F NMR spectra were recorded on a 300 MHz spectrometer, with working frequency of 282.2 MHz for ^19F nuclei. Chemical shifts are expressed in ppm relative to tetramethylsilane, using the residual solvent peak as a reference standard. GC-MS spectra were measured on a Shimadzu Gas Chromatograph/Mass Spectrometer (GCMS-QP2010Plus). UV-Vis spectra were recorded on a Shimadzu UV-Vis spectrophotometer (UV-1800). Irradiation experiments were conducted with sufficient stirring using a Newport mercury lamp (67005-414) equipped with a Jarrell-Ash light monochromator. The 710 nm Near IR light source was built with appropriate LED light bulbs (LED710-lau AlGaAs Infrared LEDs purchased from Roithner Lasertechnik GmbH). PBS buffer is an aqueous solution prepared with 11.9 mM sodium phosphate (pH 7.3-7.4), 137 mM NaCl and 2.7 mM KCl.

[5] = Thermal cis→trans isomerization kinetics followed by UV/Vis in CH2Cl2; settings: deoxygenated CH2Cl2, 294 K, starting from cis PSS, average of three measurements
Method: The thermal isomerization process was monitored by measuring the change in absorption intensity at 480 nm as a function of time (at 1 min intervals).
The thermal isomerization process was monitored by measuring the change in absorption intensity at 594 nm as a function of time (at 1 min intervals).

[6] = Reversibility of photoswitching over repeated irradiation cycles; type: physicochemical; settings: CH2Cl2, alternating visible light irradiation
From the text: The photoisomerization of Compound 1 was studied extensively by UV/vis (FIG. 1) spectroscopy. When stored in the dark, Compound 1 adopts its thermodynamically stable trans form that has an absorption maximum (λmax) at 530 nm (ε=8026 M^−1 cm^−1). Upon irradiation at 570 nm, the cis form (λmax=480 nm; £=7792 M^−1 cm^−1) becomes dominant, accompanied by a sharp color change of the solution from bright purple to light orange. The process is also accompanied by changes in the intensity of bands at higher energies (λmax=340 and 264 nm). Irradiation at 450 nm drives the system back to its trans form. […] The trans/cis isomerization can be activated solely by the use of visible light and there is no need for UV light.
The synthesis of the azo-BF2 complex 10 started from the hydrazone-based switch,^18 followed by the coupling reaction with BF3.OEt2^19 (Scheme 7). The product was fully characterized using NMR spectroscopy and mass spectrometry (FIGS. 62-76). […] Upon irradiation with a 600 nm light source, E to Z isomerization takes place (isosbestic points at 318, 406, and 508 nm) leading to a new band with a λmax at 501 nm, and e of 11209 M^−1·cm^−1 (FIGS. 58 and 81). The isomerization is accompanied with a significant color change of the solution from purple to dark orange (FIG. 58b).

Row | SMILES | degradation half-life with GSH [1] [h] | trans isomer ratio under dark [2] [%] | PSS isomer ratio, cis, irradiation at 710 nm (PSS710) ([2]; CD2Cl2 at 294 K) | Half-life, cis→trans thermal relaxation [3] [h] | degradation (hydrolysis) half-life [4] [h] | reversibility / degradation on repeated photoisomerization (in words) [6] | PSS isomer ratio, cis, irradiation at 630 nm (PSS630) ([2]; CD2Cl2 at 294 K) | stability to reduction by glutathione (in words) ([1]; 10 mM reduced glutathione in acetonitrile:PBS buffer (1:1)) | half-life (t1/2) of the cis→trans isomerization [5] [h] | PSS isomer ratio, cis, irradiation at 640 nm (PSS640) ([2]; CD2Cl2 at 294 K) | PSS isomer ratio, trans, irradiation at 490 nm (PSS490) ([2]; CD2Cl2 at 294 K)
1 | CN(C)c1ccc(N=[N+]2C(C#N)=C3C=Cc4ccccc4N3[B-]2(F)F)cc1 [Compound 4] | 2.5 | 97 | 63% and 63±1% | 0.0694 | 2.3 |  |  | No obvious difference was observed in its degradation half-life |  |  | 
2 | COc1ccc(N=[N+]2C(C#N)=C3C=Cc4ccccc4N3[B-]2(F)F)c(OC)c1 [Compound 3] |  | 58 |  |  |  |  |  |  | 13.4 | 79% and 79±1% | 56% and 56±1%
3 | N#CC1=C2C=Cc3ccccc3N2[B-](F)(F)[N+]1=Nc1ccc(N2CCCCC2)cc1 [Compound 5] | 2.1 | 98 |  | 0.0417 | 2 |  |  |  |  |  | 
4 | N#CC1=C2C=Cc3ccccc3N2[B-](F)(F)[N+]1=Nc1ccccc1 [Compound 1] |  |  |  |  |  | no degradation |  |  |  |  | 
5 | COc1ccc(N=[N+]2C(C#N)=C3C=Cc4ccccc4N3[B-]2(F)F)cc1 [Compound 2] |  | 93 |  |  |  |  | 96% and 96±1% |  |  |  | 92% and 92±1%

Further lines, with some results ahead:

Row | degradation half-life with GSH [1] [h] | trans isomer ratio under dark [2] [%] | PSS isomer ratio, cis, irradiation at 710 nm (PSS710) ([2]; CD2Cl2 at 294 K) | Half-life, cis→trans thermal relaxation [3] [h] | degradation (hydrolysis) half-life [4] [h] | reversibility / degradation on repeated photoisomerization (in words) [6] | PSS isomer ratio, cis, irradiation at 630 nm (PSS630) ([2]; CD2Cl2 at 294 K) | SMILES | stability to reduction by glutathione (in words) ([1]; 10 mM reduced glutathione in acetonitrile:PBS buffer (1:1)) | half-life (t1/2) of the cis→trans isomerization [5] [h] | PSS isomer ratio, cis, irradiation at 640 nm (PSS640) ([2]; CD2Cl2 at 294 K) | PSS isomer ratio, trans, irradiation at 490 nm (PSS490) ([2]; CD2Cl2 at 294 K)
6 | 1.0 | 97 | 83% and 82±1% | 0.25 | 0.9 |  |  | N#CC1=C2C=Cc3ccccc3N2[B-](F)(F)[N+]1=Nc1ccc(N2CCOCC2)cc1 [Compound 7] |  |  |  | 
7 | 1.3 | 94 | 49% and 49±1% | 0.111 | 1.2 |  |  | CN1CCN(c2ccc(N=[N+]3C(C#N)=C4C=Cc5ccccc5N4[B-]3(F)F)cc2)CC1 [Compound 6] |  |  |  | 
